Data: US6800297B2, “Porous COX-2 inhibitor matrices and methods of manufacture thereof” (Acusphere, Inc., priority 2000, dated 2004)

Experiment: In vitro dissolution of rofecoxib in T80/PBS
Type: physicochemical
Details: after 1 hour; PBS containing 0.08% Tween 80, 200 mL; FIG. 2, FIG. 3
Method: Rofecoxib containing materials (either tablets, or bulk rofecoxib powder, or porous rofecoxib matrix powder) containing 20-31 mg of rofecoxib were added to 200 mL of 5% dextrose at room temperature in a 600 mL beaker. For bulk rofecoxib powder and porous rofecoxib matrix powder the resulting suspension was stirred for 5 minutes. For tablets (either marketed rofecoxib tablets (VIOXX®) or porous rofecoxib matrix tablet) the resulting suspension was stirred for 3-4 minutes beyond the time required for complete tablet disintegration. A sample of the suspension (containing 0.050-0.077 mg of rofecoxib) was then transferred to the dissolution vessel.
Dissolution studies for rofecoxib were conducted in PBS (phosphate buffered saline) containing 0.08% Tween 80 (T80/PBS). The dissolution vessel was a 600 mL beaker containing 200 mL of T80/PBS, and was stirred Samples were removed via pipet and centrifuged for 5 minutes at 10,000 rpm. Samples were analyzed by HPLC for rofecoxib. Control samples (for total rofecoxib concentration in the suspension vessel) were removed via pipet, and dissolved in acetonitrile, and the resulting solutions analyzed by HPLC for rofecoxib. […]

CS(=O)(=O)c1ccc(C2=C(c3ccccc3)C(=O)OC2)cc1 [rofecoxib, 4-[4-(methylsulfonyl)phenyl]-3-phenyl-2(5H)-furanone]
percent dissolved (relative to total rofecoxib concentration in the suspension vessel): 41%
